# ChEMBL document CHEMBL6074626, “Recent advances in triazole synthesis via click chemistry and their pharmacological applications: A review” (Bioorg Med Chem Lett, 2024)
# pIC50, pKi: −log10 of the molar value.
# Columns and labels:
# [1] = Cytotoxicity against CHO-K1 cells assessed as reduction in cell growth incubated for 72 hrs by MTT assay; details: Chinese hamster (Cricetulus griseus)
# [2] = biological target: Cystic fibrosis transmembrane conductance regulator (Homo sapiens, UniProt P13569, F508DEL); experiment: Activation of CFTR F508del mutant (unknown origin)
# Cystic fibrosis transmembrane conductance regulator, sequence (P13569 as listed by the source): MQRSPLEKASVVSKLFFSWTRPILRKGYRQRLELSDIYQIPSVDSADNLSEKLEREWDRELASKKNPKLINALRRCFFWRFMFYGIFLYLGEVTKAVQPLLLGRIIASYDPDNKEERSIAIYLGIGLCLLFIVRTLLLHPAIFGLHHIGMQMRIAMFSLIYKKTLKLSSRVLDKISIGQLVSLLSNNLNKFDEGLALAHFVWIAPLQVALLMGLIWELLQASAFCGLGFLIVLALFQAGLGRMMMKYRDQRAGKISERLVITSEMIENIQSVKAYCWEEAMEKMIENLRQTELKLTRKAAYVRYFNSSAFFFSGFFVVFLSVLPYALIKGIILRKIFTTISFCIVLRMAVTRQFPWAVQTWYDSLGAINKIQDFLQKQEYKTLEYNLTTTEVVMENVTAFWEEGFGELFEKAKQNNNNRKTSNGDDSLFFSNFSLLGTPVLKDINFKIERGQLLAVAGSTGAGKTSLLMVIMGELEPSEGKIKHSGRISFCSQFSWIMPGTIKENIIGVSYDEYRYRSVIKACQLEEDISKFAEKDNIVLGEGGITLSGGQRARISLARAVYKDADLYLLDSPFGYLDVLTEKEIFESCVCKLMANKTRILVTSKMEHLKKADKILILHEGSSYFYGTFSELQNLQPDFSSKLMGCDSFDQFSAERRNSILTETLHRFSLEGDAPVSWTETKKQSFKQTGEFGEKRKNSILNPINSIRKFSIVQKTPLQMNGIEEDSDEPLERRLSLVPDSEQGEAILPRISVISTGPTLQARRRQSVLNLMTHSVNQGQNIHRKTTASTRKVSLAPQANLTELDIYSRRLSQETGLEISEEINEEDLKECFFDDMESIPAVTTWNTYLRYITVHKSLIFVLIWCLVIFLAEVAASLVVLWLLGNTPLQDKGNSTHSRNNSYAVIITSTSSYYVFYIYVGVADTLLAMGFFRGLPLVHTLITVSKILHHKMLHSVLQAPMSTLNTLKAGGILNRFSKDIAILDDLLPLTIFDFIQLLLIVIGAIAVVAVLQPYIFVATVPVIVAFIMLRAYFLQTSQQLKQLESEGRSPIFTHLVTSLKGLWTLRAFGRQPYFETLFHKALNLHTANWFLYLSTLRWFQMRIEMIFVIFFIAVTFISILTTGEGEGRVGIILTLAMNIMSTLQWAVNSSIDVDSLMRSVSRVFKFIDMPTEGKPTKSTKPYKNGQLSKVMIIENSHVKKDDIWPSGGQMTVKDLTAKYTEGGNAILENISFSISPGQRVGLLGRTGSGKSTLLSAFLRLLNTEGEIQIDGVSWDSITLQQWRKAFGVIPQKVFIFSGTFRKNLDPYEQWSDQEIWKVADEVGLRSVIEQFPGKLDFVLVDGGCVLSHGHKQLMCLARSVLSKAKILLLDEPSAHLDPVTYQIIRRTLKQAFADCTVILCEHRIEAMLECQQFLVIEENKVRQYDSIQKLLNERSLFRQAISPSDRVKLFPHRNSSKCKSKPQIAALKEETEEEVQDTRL
# [3] = biological target: T1, UDP-N-acetylglucosamine--peptide N-acetylglucosaminyltransferase 110 kDa subunit (Homo sapiens, UniProt O15294)
# T1 sequence (O15294 whole entry): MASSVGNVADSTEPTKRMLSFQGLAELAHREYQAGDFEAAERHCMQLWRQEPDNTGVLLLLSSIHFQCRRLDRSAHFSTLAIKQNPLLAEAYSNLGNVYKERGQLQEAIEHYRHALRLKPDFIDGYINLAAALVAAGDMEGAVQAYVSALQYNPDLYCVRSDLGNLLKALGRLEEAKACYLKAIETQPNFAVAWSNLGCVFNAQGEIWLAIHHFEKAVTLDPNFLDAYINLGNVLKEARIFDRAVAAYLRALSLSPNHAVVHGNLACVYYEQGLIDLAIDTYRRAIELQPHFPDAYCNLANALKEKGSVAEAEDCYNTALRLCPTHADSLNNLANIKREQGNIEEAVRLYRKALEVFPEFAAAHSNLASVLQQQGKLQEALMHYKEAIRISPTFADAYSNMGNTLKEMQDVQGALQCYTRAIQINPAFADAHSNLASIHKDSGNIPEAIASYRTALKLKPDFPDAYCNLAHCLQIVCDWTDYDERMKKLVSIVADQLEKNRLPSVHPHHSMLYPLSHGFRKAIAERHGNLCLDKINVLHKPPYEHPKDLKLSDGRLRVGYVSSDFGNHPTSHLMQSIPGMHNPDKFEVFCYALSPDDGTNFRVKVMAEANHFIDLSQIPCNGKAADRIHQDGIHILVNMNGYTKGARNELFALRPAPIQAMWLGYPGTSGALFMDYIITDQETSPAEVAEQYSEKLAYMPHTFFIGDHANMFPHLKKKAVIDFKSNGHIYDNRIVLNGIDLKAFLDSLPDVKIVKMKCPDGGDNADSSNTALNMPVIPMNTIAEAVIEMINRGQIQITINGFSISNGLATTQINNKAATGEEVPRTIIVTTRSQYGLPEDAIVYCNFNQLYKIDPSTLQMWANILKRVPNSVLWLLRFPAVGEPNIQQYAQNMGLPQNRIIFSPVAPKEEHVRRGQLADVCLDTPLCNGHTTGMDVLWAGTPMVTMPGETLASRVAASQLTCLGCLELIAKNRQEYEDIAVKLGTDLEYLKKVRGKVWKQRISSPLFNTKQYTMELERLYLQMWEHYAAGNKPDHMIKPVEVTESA
# Description: Binding affinity to human recombinant OGT (312 to 1031 residue) assessed as inhibition constant by fluorescence based analysis
# K562 = experiment: Antiproliferative activity against human K562 cells assessed as reduction in cell viability incubated for 72 hrs by MTT assay; details: K562, 72 h
# HCT-116 = experiment: Antiproliferative activity against human HCT-116 cells assessed as reduction in cell viability incubated for 72 hrs by MTT assay; details: HCT-116, 72 h
structure (smiles),measurement,setting,value
O=C(Cn1cc(CSc2nc3cc(OC(F)F)ccc3[nH]2)nn1)NC1CCCCC1,IC50 at 72 h,[1],53.3 µM
Cc1ccc(-n2cc(C3(c4ccc5c(c4)OC(F)(F)O5)CC3)nn2)cc1-c1cccc(C(=O)O)c1,pIC50,[2],6.18
CC(=O)N[C@H]1C(n2cc(COP(=O)(O)OC[C@H]3O[C@@H](n4ccc(=O)[nH]c4=O)[C@H](O)[C@@H]3O)nn2)O[C@H](CO)[C@@H](O)[C@@H]1O (stereo not given in full),pKi,[3],3.63
COC(=O)CC[C@@H](C)[C@H]1CC[C@H]2[C@@H]3[C@@H](O)C[C@@H]4C[C@H](n5cc(CCCCC#Cc6nc7c(N)ncnc7n6[C@@H]6O[C@H](CO)[C@@H](C)[C@H]6C)nn5)CC[C@]4(C)[C@H]3CC[C@]12C,pIC50,K562,5.07
same,pIC50,HCT-116,4.64
